Source: PMC7168207, “Dibasic Derivatives of Phenylcarbamic Acid as Prospective Antibacterial Agents Interacting with Cytoplasmic Membrane” (Antibiotics, 2020)

Experiments:
MRSA 63718 = assay: synergy with antibiotics (FIC index, checkerboard); format: cell-based, Staphylococcus aureus; settings: in the combination of that line
From the text: (§1) Representatives from various classes were chosen in order to study the potential difference in synergistic activity according to the diverse mechanisms of action and resistance of these drugs. The method of minimal fractional inhibitory concentration (FIC) index (FICI) in a microtitration plate was used. FICI ≤ 0.5 means synergy; 0.5 < FICI < 1 means additivity; 1 ≤ FICI < 4 means indifference; and FICI ≥ 4 means antagonism.
(§2) For synergy effect study, a method of fractional inhibitory concentration was used. […] Raw H was used for the evaluation of MIC(A); column 12 was used for evaluation of MIC(B). The plate was inoculated by the bacterial suspension to reach final concentration of 5 × 10^5 CFU/mL in the wells. The fractional inhibitory concentration (FIC) index was calculated using the concentrations in the first nonturbid (clear) well found in each row and column along the turbidity/nonturbidity interface. To interpret the combined effect, the lowest FICI was used. A ΣFIC ≤ 0.5 means synergy; 0.5 < ΣFIC < 1 means additivity; 1 ≤ ΣFIC < 4 means indifference; and ΣFIC ≥ 4 means antagonism. The tests were made in duplicate, and the results were averaged.

VRE 342B = assay: time-kill study; format: cell-based, Enterococcus faecalis; settings: VRE1
From the text: Time-kill studies are used to evaluate the dynamics of antibacterial activity. As mentioned above, a pre-test to determine minimum bactericidal concentration (MBC) by sub-cultivation of aliquots on agar was made (see Section 3.4). […] Time-kill studies were made with methicillin-susceptible S. aureus ATCC 29213 and methicillin-resistant MRSA 63718, vancomycin-susceptible E. faecalis ATCC 29212, and all three VRE isolates. Vancomycin was used as a control (Table 6).
The method of time-kill curves was used to study the bactericidal effect of selected compounds. […] The experiment was performed with S. aureus ATCC 29213, MRSA 63718, E. faecalis ATCC 29212, and all VRE isolates. […] The tubes were inoculated by bacterial inoculum in the exponential phase of growth to get a final concentration of 7.5 × 10^6 CFU/mL. The tubes were incubated statically at 37 °C. Immediately after inoculation and after 4, 6, 8, and 24 h, 100 µL of the sample was serially diluted (1:10) in PBS. Then, 2 × 20 µL from each dilution were put onto a Mueller–Hinton agar plate and cultivated at 37 °C for 24 h. After incubation, CFUs of dilutions containing 5–50 colonies were counted. Results were expressed as a decrease of log10(CFU) in each time compared to the starting inoculum. Bactericidal effect is defined as a −3log decrease of CFU/mL compared to the growth control in time 0. The test was made in duplicate on two separate occasions, and the results were averaged. The growth curves with error bars are shown in Figures S1 and S2 in Supplementary Materials.

MRSA SA 3202 = assay: synergy with antibiotics (FIC index, checkerboard); format: cell-based, Staphylococcus aureus; settings: in the combination of that line
From the text: as §1, §2

Structure (SMILES)	concentrations of the tested compound/clinically used antibiotic providing additivity or synergy (MRSA 63718)	Log10 Difference in CFU/mL from Inoculum (VRE 342B; 1 × MIC, 4 h)	Log10 Difference in CFU/mL from Inoculum (VRE 342B; 1 × MIC, 6 h)	Log10 Difference in CFU/mL from Inoculum (VRE 342B; 1 × MIC, 8 h)	Log10 Difference in CFU/mL from Inoculum (VRE 342B; 1 × MIC, 24 h)	Log10 Difference in CFU/mL from Inoculum (VRE 342B; 2 × MIC, 4 h)	Log10 Difference in CFU/mL from Inoculum (VRE 342B; 2 × MIC, 6 h)	Log10 Difference in CFU/mL from Inoculum (VRE 342B; 2 × MIC, 8 h)	Log10 Difference in CFU/mL from Inoculum (VRE 342B; 2 × MIC, 24 h)	Log10 Difference in CFU/mL from Inoculum (VRE 342B; 4 × MIC, 4 h)	Log10 Difference in CFU/mL from Inoculum (VRE 342B; 4 × MIC, 6 h)	Log10 Difference in CFU/mL from Inoculum (VRE 342B; 4 × MIC, 8 h)	Log10 Difference in CFU/mL from Inoculum (VRE 342B; 4 × MIC, 24 h)	concentrations of the tested compound/clinically used antibiotic providing additivity or synergy (MRSA SA 3202)
CCCCCCOc1cccc(NC(=O)OC(CN(CCC)CCC)CN2CCCC2)c1.Cl.Cl (centres unmarked) [1g, 1-[3-(dipropylammonio)-2-({[3-(hexyloxy)phenyl]carbamoyl}oxy)propyl]pyrrolidinium dichloride]	2 µg/mL	−0.14 log10 CFU/mL	0.97 log10 CFU/mL	1.01 log10 CFU/mL	1.11 log10 CFU/mL	−0.36 log10 CFU/mL	−1.89 log10 CFU/mL	−0.64 log10 CFU/mL	1.51 log10 CFU/mL	−0.92 log10 CFU/mL	−1.00 log10 CFU/mL	−1.09 log10 CFU/mL	0.77 log10 CFU/mL	–
CCCCCCCOc1cccc(NC(=O)OC(CN(CCC)CCC)CN2CCCC2)c1.Cl.Cl (centres unmarked) [1h, 1-[3-(Dipropylammonio)-2-({[3-(heptyloxy)phenyl]carbamoyl}oxy)propyl]pyrrolidinium dichloride]	–	0.07 log10 CFU/mL	1.08 log10 CFU/mL	−0.08 log10 CFU/mL	1.42 log10 CFU/mL	0.09 log10 CFU/mL	0.41 log10 CFU/mL	−0.02 log10 CFU/mL	0.47 log10 CFU/mL	−0.78 log10 CFU/mL	−0.99 log10 CFU/mL	−0.66 log10 CFU/mL	0.85 log10 CFU/mL	4 µg/mL
